Measurements reported in PubChem BioAssay (NCI).
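Briefly, cells in 96-well plates were exposed to five compound concentrations for 48 h, and endpoints were estimated by linear interpolation. The concentration for 50% growth inhibition is given as GI50. At the TGI there is no net growth.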

How the values were obtained:
Assay in all cases: NCI tumour cell line growth inhibition, 48 h
[1] = system: MALME-3M melanoma
[2] = system: MDA-MB-435
[3] = system: OVCAR-4 ovarian
[4] = system: SW-620 colon
[5] = system: CCRF-CEM leukemia
[6] = system: KM12 colon
[7] = system: SF-295 CNS
[8] = system: MDA-MB-231 breast
[9] = system: U251 CNS
[10] = system: OVCAR-5 ovarian

Structure (SMILES) | TGI [1] | TGI [2] | TGI [3] | TGI [4] | TGI [5] | TGI [6] | TGI [7] | TGI [8] | TGI [9] | TGI [10] | GI50 [1] | GI50 [3] | GI50 [10] | GI50 [7] | GI50 [8]
COc1ccc(NC(=O)C(=O)/C=C(\O)c2ccccc2)cc1 | > 10 µM | > 10 µM | > 10 µM | > 10 µM | 8.76 µM | > 10 µM | > 10 µM | > 10 µM | – | – | – | – | – | – | –
O=c1[nH]c(Nc2nc3ccccc3[nH]2)nc(O)c1Cc1ccccc1 | > 100 µM | > 100 µM | > 100 µM | > 100 µM | > 100 µM | > 100 µM | – | > 100 µM | > 100 µM | – | – | – | – | – | –
C=C(C)[C@@H]1CC[C@]2(C(=O)OC)CC[C@]3(C)[C@H](CC[C@@H]4[C@@]5(C)CC[C@H](O)C(C)(C)[C@@H]5CC[C@]43C)[C@@H]12 | 53 µM | 42.5 µM | – | 38.8 µM | 48.9 µM | > 100 µM | 34.4 µM | > 100 µM | 35.8 µM | 55.4 µM | – | – | – | – | –
CCN(CCN(CC)C(=O)Nc1ccccc1)C(=O)Nc1ccccc1 | > 100 µM | – | – | > 100 µM | > 100 µM | – | > 100 µM | > 100 µM | > 100 µM | > 100 µM | – | – | – | – | –
N#CCCC1(CCC#N)CCCCCCCCC(CCC#N)(CCC#N)C(O)C1O (stereo not drawn) | > 100 µM | > 100 µM | > 100 µM | > 100 µM | – | > 100 µM | > 100 µM | – | > 100 µM | > 100 µM | – | – | – | – | –
CC1CC(C#N)=C2NCCN2C1=O (stereo not drawn) | > 100 µM | 50.1 µM | > 100 µM | > 100 µM | > 100 µM | > 100 µM | > 100 µM | > 100 µM | > 100 µM | – | – | – | – | – | –
COc1cc(O)c2c(=O)c(OC)c(-c3ccc(OC)c(OC)c3)oc2c1 | > 100 µM | > 100 µM | > 100 µM | > 100 µM | > 100 µM | – | > 100 µM | > 100 µM | > 100 µM | > 100 µM | > 100 µM | 61.8 µM | 23 µM | > 100 µM | > 100 µM
COc1cccc(C2c3cc4c(cc3OC3COC(=O)C32)OCO4)c1OC (stereo not drawn) | > 100 µM | – | > 100 µM | > 100 µM | > 100 µM | > 100 µM | > 100 µM | > 100 µM | – | > 100 µM | – | – | – | – | –
COc1cc(Oc2nc3ccc(C(F)(F)F)cc3nc2-c2ccccc2)cc(OC)c1OC | > 100 µM | > 100 µM | 26.3 µM | – | > 100 µM | > 100 µM | 28.2 µM | > 100 µM | 28.5 µM | > 100 µM | – | – | – | – | –
CO/N=C1/c2sccc2[C@H](NC(=O)C(Cc2ccccc2)NC(=O)OC(C)(C)C)[C@@H]1O (stereo partly drawn) | > 100 µM | > 100 µM | > 100 µM | > 100 µM | > 100 µM | – | > 100 µM | > 100 µM | > 100 µM | > 100 µM | – | – | – | – | –
O=C1CCCC/C1=C\c1ccc(Cl)c(Cl)c1 | – | – | 41 µM | 50.7 µM | 58.7 µM | – | – | – | 30.6 µM | – | – | – | – | – | –
CCC1C(c2ccccc2O)c2cc3c(cc2OC1N1CCOCC1)OCO3 (stereo not drawn) | 26 µM | 28.9 µM | – | 33 µM | 32.7 µM | 27.7 µM | 28.6 µM | 33.5 µM | 26.4 µM | 28.7 µM | – | – | – | – | –
CSc1c(C#N)c(N)n(-c2ccc(Cl)cc2)c(=O)c1C#N | > 100 µM | > 100 µM | > 100 µM | > 100 µM | – | > 100 µM | – | > 100 µM | > 100 µM | > 100 µM | – | – | – | – | –
CN1CCN(P2(=S)Oc3ccc4ccccc4c3-c3c(ccc4ccccc34)O2)CC1 | 50.8 µM | – | > 100 µM | > 100 µM | > 100 µM | 51.1 µM | > 100 µM | – | > 100 µM | > 100 µM | – | – | – | – | –
CCOC(=O)Cn1nnc2ccc(Nc3nc4ccccc4nc3-c3ccccc3)cc21 | > 100 µM | > 100 µM | > 100 µM | > 100 µM | > 100 µM | > 100 µM | > 100 µM | – | > 100 µM | > 100 µM | – | – | – | – | –
O=C(O)c1ccccc1N=Nc1c(O)c(S(=O)(=O)O)cc2cc(S(=O)(=O)O)ccc12 | – | > 100 µM | – | > 100 µM | > 100 µM | > 100 µM | > 100 µM | > 100 µM | > 100 µM | > 100 µM | – | – | – | – | –
CCCCCCCCCCCC[N+](CCCCCCCCCCCC)=C1SCCS1 | 19.1 µM | – | 11.3 µM | 10.1 µM | – | – | 11.6 µM | – | 13.7 µM | 25.1 µM | – | – | – | – | –
CCOC(=O)c1c[nH]c2ccc3c(c2c1=O)S(=O)(=O)CC3 (tested in a mixture with another compound) | > 100 µM | – | > 100 µM | > 100 µM | > 100 µM | > 100 µM | > 100 µM | – | > 100 µM | > 100 µM | – | – | – | – | –
Cc1cc(NS(=O)(=O)c2ccc(NC(=O)c3cccc4c(Nc5ccc(S(N)(=O)=O)cc5)c5ccccc5nc34)cc2)no1 | > 100 µM | – | > 100 µM | – | > 100 µM | > 100 µM | – | – | > 100 µM | > 100 µM | – | – | – | – | –
COc1cccc(/N=N/C(=NNC(=O)c2ccc(C)cc2)c2ccc(N(C)C)cc2)c1 | – | > 100 µM | > 100 µM | > 100 µM | > 100 µM | > 100 µM | > 100 µM | > 100 µM | > 100 µM | > 100 µM | – | – | – | – | –
O=C1NC2CCCCCC2C12CCCCC2 (stereo not drawn) | > 100 µM | – | > 100 µM | > 100 µM | > 100 µM | > 100 µM | > 100 µM | – | > 100 µM | > 100 µM | – | – | – | – | –
CC[C@@]1(O)C(=O)OCc2c1cc1n(c2=O)Cc2c-1nc1ccccc1c2/C=N\NC(=O)C(N)CCSC (stereo partly drawn) | 14.5 µM | 3.58 µM | 3.24 µM | > 41.1 µM | > 100 µM | – | 0.315 µM | > 100 µM | 1.17 µM | > 23.7 µM | – | – | – | – | –
Nc1ccc(Nc2cc(=O)[nH]c(=O)[nH]2)cc1Cl | > 100 µM | > 100 µM | > 100 µM | > 100 µM | > 100 µM | – | > 100 µM | > 100 µM | > 100 µM | > 100 µM | – | – | – | – | –
CC(C)(CCC(C)(C)N1OC1c1ccccc1)N1OC1c1ccccc1 (stereo not drawn) | > 100 µM | > 100 µM | > 100 µM | > 100 µM | 35 µM | > 100 µM | > 100 µM | > 100 µM | > 100 µM | – | – | – | – | – | –
O=C(O)c1cc(CCc2cc(O)ccc2O)ccc1O | > 100 µM | > 100 µM | > 100 µM | > 100 µM | 71.4 µM | > 100 µM | > 100 µM | – | > 100 µM | > 100 µM | – | – | – | – | –
